We go through 20 molecules from US9132136B2, “Pharmaceutical combination” (HOFFMANN-LA ROCHE INC., priority 2010, dated 2015).

Entries after “also recorded” stand apart in the source; their conditions may differ. Where a name gives a salt, the structure may show the parent alone. Read-outs that look alike come from different tables or passages of the source.

In data set [1] the target is T1, mouse TAAR1 (Mus musculus, UniProt Q923Y8).
T1 construct: expressed in transfected cells
Nature of the data set: In vitro functional activity (cAMP assay) at mouse TAAR1 receptor in recombinant HEK293 cells. In kind it is cell-based. Particulars: for Emax: HEK293, relative to phenylethylamine having 100% agonistic activity, read-out: % efficacy. On the procedure:
In Vitro Functional Activity of TAAR1 Agonists at Mouse TAAR1 Receptor
Recombinant HEK293 cells expressing the mouse TAAR1 were grown at 37° C. and 5% CO2/95% air in 250 ml Falcon culture flasks in 30 ml culture medium. The cell culture medium contained DMEM high glucose, fetal calf serum (10%, heat inactivated for 30 min at 56° C.), geneticin G418 (500 μg/ml), and penicillin/streptomycin (1%). Cells were harvested when 80-90% confluent. Then culture medium was then removed from the culture flasks, cells washed once with 5 ml of PBS. After removing the wash solution, 5 ml of trypsin/EDTA solution were added for 5 min at 37° C. Afterwards, 45 ml of culture medium was added to the 5 ml detached cell solution and the total 50 ml transferred into a 50 ml Falcon tube (ref: 2070), the tube was centrifuged at 1300 rpm for 3 min at RT and the culture medium removed. The cell pellet was resuspended in fresh culture medium and brought to 5×10 E5 cells per milliliter. Then the cells were plated in 96-well Plate (BIOCOAT 6640 from Becton Dickinson) with a multipipette (100 μl/well, 50 000 cells/well) and incubated 20 h at 37° C.
The cell culture medium was removed and the cells washed once with PBS. 50 μl of PBS (AMIMED Endotoxine free: 8-05F00-1) with 1 mM IBMX were added and the cells allowed to incubate for 30 min at 37° C. and 5% CO2/95% air. Then 50 μl of a (e.g.) 20 μM compound solution or 50 μl of a 50% beta-PEA stimulation concentration in PBS (AMIMED Endotoxine free) with 1 mM IBMX were added and the cells incubated for 30 min at 37° C. as above again. After the incubation the cells were lysed with 50 μl of the 3× Detection Mix solution containing Ru-cAMP, Alexa700-cAMP Ab and lysis buffer for at least 60 min (better 2 h) at RT under strong shaking. The fluorescence is measured on the NanoScan (10M reader) (Ex. 456 nm, Em. 630 & 700 nm).
Efficacy values (% eff.) are relative to phenylethylamine having 100% agonistic activity.
For orientation: Changes in cAMP serve as a functional read-out for many G protein-coupled receptors.

A short description of data set [2]: Oral glucose tolerance test (oGTT) in male C57Bl6 mice. In kind it is in vivo, male C57BL/6J mice. On the procedure: An oral glucose tolerance test (oGTT) was performed in C57Bl6 mice to address potential anti-diabetic effects of TAAR1 agonists. Male C57BL/6J mice (Charles River Laboratories, Lyon, France) were stratified into groups of 8 mice according to body weight. The evening before the animals received 1 g food, this corresponds to a fasting period of about 10 hours. At the experiment day the animals were treated with TAAR1 agonists or placebo (0.3% Tween 80) 45 minutes prior to an oral glucose challenge of 2 g/kg. The main readout was blood glucose measured with Accu-Chek Aviva. In parallel blood samples were taken for insulin determination.

For data set [3], the system named is cocaine-induced hyperlocomotor activity in mice. Nature of the data set: Cocaine-induced locomotion test in mice. In kind it is in vivo. The conditions noted are these: tested alone, 0.1 mg/kg p.o.
For data set [4] the following is noted: paediatric patients, cited from earlier work.
A short description of data set [5]: 14-day treatment in rats: body weight gain, fat mass (MR relaxometry), food intake.
Source text: Along with body weight measurement, magnetic resonance (MR) relaxometry was employed to determine, in a noninvasive manner, fat mass composition in the animals.
The mark [6] stands for this setting: HEK293 cells expressing mouse TAAR1, cAMP assay, read-out: EC50.
Where [7] appears, read: 10 and 30 mg/kg p.o., vs vehicle.
Where [8] appears, read: 0.1 and 0.3 mg/kg p.o., vs vehicle.
The mark [9] stands for this setting: 14 days, olanzapine 2 mg/kg p.o.

T1 sequence (Q923Y8 whole entry): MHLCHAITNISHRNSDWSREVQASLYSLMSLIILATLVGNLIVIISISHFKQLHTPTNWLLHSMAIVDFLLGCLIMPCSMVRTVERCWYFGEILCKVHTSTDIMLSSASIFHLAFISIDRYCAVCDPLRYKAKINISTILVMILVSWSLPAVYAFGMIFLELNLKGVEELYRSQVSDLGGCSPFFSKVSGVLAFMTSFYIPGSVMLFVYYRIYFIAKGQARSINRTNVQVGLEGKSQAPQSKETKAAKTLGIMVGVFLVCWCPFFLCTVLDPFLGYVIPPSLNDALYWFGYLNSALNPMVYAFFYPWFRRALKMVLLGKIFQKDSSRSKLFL

Regarding `O=C(Nc1ccc(C2CCNC2)cc1)c1ccc(Cl)cc1` (racemic) [Example S6, (RS)-4-Chloro-N-(4-pyrrolidin-3-yl-phenyl)-benzamide hydrochloride], the Emax in data set [1] is 78%. Further, in data set [1] (setting [6]), the concentration giving a half-maximal response (EC50) – broadly, the concentration needed to bring the measured effect to its halfway point – was found to be 1.4 nM. In addition, the “glucose AUC (0-60 min) during oGTT” value in data set [2] (setting [7]) is “markedly lowered”.
Take `O=C(Nc1ccc(C2CCNC2)cc1)Nc1ccc(Cl)cn1` (racemic) [Example S7, (RS)-1-(5-Chloro-pyridin-2-yl)-3-(4-pyrrolidin-3-yl-phenyl)-urea hydrochloride]: the Emax in data set [1] was 57%. Besides, the EC50 in data set [1] (setting [6]) was 0.8 nM. Moreover, the “glucose AUC (0-60 min) during oGTT” value in data set [2] (10 mg/kg p.o., vs vehicle) is listed as “markedly lowered”.
As for `O=C(Nc1ccc(C2CCNC2)cc1)c1ccc(Cl)cn1` (racemic) [Example S8, (RS)-5-Chloro-pyridine-2-carboxylic acid (4-pyrrolidin-3-yl-phenyl)-amide hydrochloride], the Emax in data set [1] came out at 65%. The EC50 in data set [1] (setting [6]) worked out at 7.4 nM. The “glucose AUC (0-60 min) during oGTT” value in data set [2] (setting [7]) is “markedly lowered”.
For `CC[C@@H](C[C@H]1COC(N)=N1)c1ccccc1` [Example S1, (S)-4-((S)-2-Phenyl-butyl)-4,5-dihydro-oxazol-2-ylamine], the Emax in data set [1] came out at 90%. In addition, the EC50 in data set [1] (setting [6]) is 2 nM. Moreover, the cocaine-induced hyperlocomotor activity result in data set [3] is on record as “partially antagonized”. In addition, in data set [2], the fasting glucose levels result is recorded as “No effect”. Further, in data set [2] (setting [8]), the “glucose AUC (0-60 min) during oGTT (blood glucose excursion)” value was “significantly lowered; also recorded: markedly lowered” and the “insulin AUC (0-60 min) during oGTT (insulin excursion)” value is “significantly lower; also recorded: markedly lowered”.
For the molecule `NC1=N[C@@H](c2ccc(Cl)cc2C(F)(F)F)CO1` [Example S3, (+)-(S)-4-(4-Chloro-2-trifluoromethyl-phenyl)-4,5-dihydro-oxazol-2-ylamine], in data set [1], the concentration for a half-maximal effect (EC50) came out at 1.3 nM and the Emax was 67%. For the same molecule, in data set [2] (1 and 3 mg/kg p.o., vs vehicle), the “glucose AUC (0-60 min) during oGTT” value was “markedly lowered” and the “insulin AUC (0-60 min) during oGTT” value is recorded as “markedly lowered”.
Consider `CCN(C[C@H]1COC(N)=N1)c1ccccc1` [Example S4, (S)-4-[(Ethyl-phenyl-amino)-methyl]-4,5-dihydro-oxazol-2-ylamine], for which, in data set [1], the Emax came out at 65%. Moreover, the half-maximal effective concentration (EC50) in data set [1] (setting [6]) amounted to 3.3 nM. Besides, in data set [2] (0.3 mg/kg p.o., vs vehicle), the “glucose AUC (0-60 min) during oGTT” value is “markedly lowered” and the “insulin AUC (0-60 min) during oGTT” value was “markedly lowered”.
As for `CC[C@@H](C[C@H]1COC(N)=N1)Oc1cccc(O)c1` [Example S5, 3-[(S)-1-((S)-2-Amino-4,5-dihydro-oxazol-4-ylmethyl)-propoxy]-phenol], the Emax in data set [1] worked out at 51%. Further, the EC50 in data set [1] (setting [6]) turned out to be 1.6 nM. For the same molecule, in data set [2] (30 mg/kg p.o., vs vehicle), the “glucose AUC (0-60 min) during oGTT” value was “markedly lowered”.
On to `C[C@H](OC[C@H]1COC(N)=N1)c1ccc(F)cc1` [Example S9, (S)-4-[(S)-1-(4-Fluoro-phenyl)-ethoxymethyl]-4,5-dihydro-oxazol-2-ylamine], for which the Emax in data set [1] is 99%. Also, in data set [1] (setting [6]), the EC50 stood at 1.7 nM. In data set [2] (10 mg/kg p.o., vs vehicle), the “glucose AUC (0-60 min) during oGTT” value is “markedly lowered”.
For `NC1=N[C@@H](CCc2ccc(NC(=O)c3ncc(Cl)cn3)cc2)CO1` [Example S10, 5-Chloro-pyrimidine-2-carboxylic acid {4-[2-((S)-2-amino-4,5-dihydro-oxazol-4-yl)-ethyl]-phenyl}-amide], in that order: 32%, 1.6 nM and “markedly lowered”.
`NC1=N[C@@H](CCc2ccc(NC(=O)c3ccc(Cl)cc3)cc2)CO1` [Example S11, N-{4-[2-((S)-2-Amino-4,5-dihydro-oxazol-4-yl)-ethyl]-phenyl}-4-chloro-benzamide]: the Emax in data set [1] worked out at 45%. Also, the half-maximal effective concentration (EC50) in data set [1] (setting [6]) came out at 0.1 nM. The “glucose AUC (0-60 min) during oGTT” value in data set [2] (1 and 3 mg/kg p.o., vs vehicle) was “markedly lowered”.
`Cc1cc(C(=O)Nc2ccc([C@@H]3CNCCO3)cc2)cc(Cl)n1` [Example S12, (R)-2-Chloro-6-methyl-N-(4-(morpholin-2-yl)phenyl)isonicotinamide hydrochloride]: the Emax in data set [1] stood at 69%. In addition, the EC50 in data set [1] (setting [6]) came out at 3.1 nM. Also, in data set [2] (3 mg/kg p.o., vs vehicle), the “glucose AUC (0-60 min) during oGTT” value was “markedly lowered”.
In the case of `O=C(Nc1ccc([C@H]2CNCCO2)cc1)c1ccc(OCC(F)(F)F)nc1` [Example S13, (S)—N-(4-(Morpholin-2-yl)phenyl)-6-(2,2,2-trifluoroethoxy)nicotinamide hydrochloride], in data set [1], the Emax came out at 54%. Moreover, the EC50 in data set [1] (setting [6]) came to 1.6 nM. Also, in data set [2] (3 mg/kg p.o., vs vehicle), the “glucose AUC (0-60 min) during oGTT” value is on record as “markedly lowered”.
`O=C(Nc1ccc([C@H]2CNCCO2)cc1)c1ccnc(C(F)(F)F)c1` [Example S14, (S)—N-(4-(Morpholin-2-yl)phenyl)-2-(trifluoromethyl)isonicotinamide hydrochloride]: in data set [1], the Emax amounted to 55%. Moreover, the EC50 in data set [1] (setting [6]) was found to be 4.6 nM. Further, in data set [2] (1 mg/kg p.o., vs vehicle), the “glucose AUC (0-60 min) during oGTT” value was “markedly lowered”.
For `O=C(NCc1ccc(F)cc1)Nc1ccc([C@H]2CNCCO2)cc1` [Example S15, (S)-1-(4-Fluorobenzyl)-3-(4-(morpholin-2-yl)phenyl)urea hydrochloride], in that order: 40%, 0.6 nM and “markedly lowered”.
For `N#Cc1cccc(NC(=O)Nc2ccc([C@H]3CNCCO3)cc2)c1` [Example S16, (S)-1-(3-Cyanophenyl)-3-(4-(morpholin-2-yl)phenyl)urea hydrochloride], in that order: 60%, 0.4 nM and “markedly lowered”.
With `O=C(Nc1ccc([C@H]2CNCCO2)cc1)c1ccc(Cl)nc1` [Example S17, (S)-6-Chloro-N-(4-(morpholin-2-yl)phenyl)nicotinamide hydrochloride], the Emax in data set [1] amounted to 39%. In addition, in data set [1] (setting [6]), the EC50 came to 1.8 nM. The “glucose AUC (0-60 min) during oGTT” value in data set [2] (0.3 and 1 mg/kg p.o., vs vehicle) is on record as “markedly lowered”.
On to `O=C1CCc2ccc(OCCCCN3CCN(c4cccc(Cl)c4Cl)CC3)cc2N1` [aripiprazole], for which, in data set [4] (study period), the “adverse metabolic baseline-to-endpoint changes (total cholesterol, triglycerides, non-HDL cholesterol, ratio of triglycerides to HDL cholesterol)” value is on record as “not significant”.
Regarding `Cc1cc2c(s1)Nc1ccccc1N=C2N1CCN(C)CC1` [olanzapine, reference compound], in data set [5] (setting [9]), the food intake result was “increase” and the weight gain entry was “increase”. The “Cumulative food intake ± SEM” value in data set [5] (Study 2, olanzapine 2 mg/kg) is on record as 301.6 ± 8.6 g. The “incidence rates of hyperglycaemia and the metabolic syndrome” value in data set [4] is on record as “highest incidence rates”.
With `OCCOCCN1CCN(C2=Nc3ccccc3Sc3ccccc32)CC1` [quetiapine], the “incidence rates of hyperglycaemia and the metabolic syndrome” value in data set [4] was “modestly higher incidence rates”. Besides, in data set [4] (study period), the “adverse metabolic baseline-to-endpoint changes (total cholesterol, triglycerides, non-HDL cholesterol, ratio of triglycerides to HDL cholesterol)” value is “reached statistical significance”.
On to `Cc1nc2n(c(=O)c1CCN1CCC(c3noc4cc(F)ccc34)CC1)CCCC2` [risperidone], for which the levels of triglycerides entry in data set [4] (study period) is given as “increased significantly”.
